Data on 15 compounds can be found in US20240208992A1, “MACROCYCLES AS CFTR MODULATORS” (Idorsia Pharmaceuticals Ltd, priority 2021, published 2024).

The target of this assay is human F508del-CFTR (Homo sapiens, UniProt P13569, DEL508-508). Description: F508del-CFTR cell surface expression (corrector activity), DiscoveRx ß-galactosidase complementation chemiluminescence assay in recombinant U2OS cell line.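 For all read-outs here: U2OS cells co-expressing ProLink-tagged F508del-CFTR and a membrane-anchored enzyme acceptor, where more surface CFTR restores β-galactosidase activity measured by chemiluminescence.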 Particulars: for EC50: EC50, F508del-CFTR cell surface expression, U2OS cells, 16h compound incubation, geomean values; for Emax: in relation to Emax of corrector lumacaftor (=100%), arithmetic mean values.
Sequence of human F508del-CFTR (P13569 with tags, fused parts or gaps DEL508-508): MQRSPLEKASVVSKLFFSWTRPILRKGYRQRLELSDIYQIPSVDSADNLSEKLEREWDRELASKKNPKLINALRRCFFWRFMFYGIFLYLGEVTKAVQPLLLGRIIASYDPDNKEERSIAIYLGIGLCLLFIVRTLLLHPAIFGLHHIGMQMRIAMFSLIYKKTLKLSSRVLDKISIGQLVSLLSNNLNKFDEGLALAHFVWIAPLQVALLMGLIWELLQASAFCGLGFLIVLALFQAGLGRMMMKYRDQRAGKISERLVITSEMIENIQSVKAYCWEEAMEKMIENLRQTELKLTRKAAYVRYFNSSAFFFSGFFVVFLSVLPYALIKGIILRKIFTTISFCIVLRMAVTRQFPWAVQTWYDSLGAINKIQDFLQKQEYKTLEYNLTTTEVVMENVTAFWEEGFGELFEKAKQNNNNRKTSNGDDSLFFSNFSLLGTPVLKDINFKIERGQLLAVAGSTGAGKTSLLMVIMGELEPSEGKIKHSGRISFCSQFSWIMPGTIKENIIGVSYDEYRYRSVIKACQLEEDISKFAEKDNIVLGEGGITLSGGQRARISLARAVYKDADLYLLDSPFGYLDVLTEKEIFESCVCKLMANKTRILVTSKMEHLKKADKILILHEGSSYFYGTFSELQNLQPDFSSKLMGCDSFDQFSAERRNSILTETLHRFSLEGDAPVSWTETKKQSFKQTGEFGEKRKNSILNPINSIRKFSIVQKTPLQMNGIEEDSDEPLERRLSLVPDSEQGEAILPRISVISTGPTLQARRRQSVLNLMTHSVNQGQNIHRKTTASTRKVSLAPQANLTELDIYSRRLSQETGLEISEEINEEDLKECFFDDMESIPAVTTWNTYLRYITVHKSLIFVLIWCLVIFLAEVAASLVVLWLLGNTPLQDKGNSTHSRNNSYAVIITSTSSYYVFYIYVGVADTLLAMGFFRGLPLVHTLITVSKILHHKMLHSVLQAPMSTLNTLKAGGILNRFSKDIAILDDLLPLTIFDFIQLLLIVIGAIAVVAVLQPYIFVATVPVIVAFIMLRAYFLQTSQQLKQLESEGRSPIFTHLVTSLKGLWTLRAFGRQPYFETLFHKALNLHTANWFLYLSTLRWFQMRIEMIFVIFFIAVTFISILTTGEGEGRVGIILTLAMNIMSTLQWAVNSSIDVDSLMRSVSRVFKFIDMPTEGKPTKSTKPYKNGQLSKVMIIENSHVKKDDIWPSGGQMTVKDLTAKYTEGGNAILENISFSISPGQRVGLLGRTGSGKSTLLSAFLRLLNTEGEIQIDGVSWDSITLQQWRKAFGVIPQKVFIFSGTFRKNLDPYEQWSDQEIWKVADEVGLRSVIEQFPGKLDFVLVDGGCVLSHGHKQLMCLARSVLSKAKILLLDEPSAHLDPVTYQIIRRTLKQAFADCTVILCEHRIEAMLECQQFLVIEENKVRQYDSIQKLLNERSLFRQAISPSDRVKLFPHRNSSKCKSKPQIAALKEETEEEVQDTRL

For `COc1cccc(CCNC(=O)[C@@H]2CC(=O)N(C)[C@@H](CC(C)C)C(=O)N(C)C(C)(C)C(=O)N[C@H](Cc3ccccc3)COc3cnc4ccccc4c3C(=O)N2)c1` [Example 503, (3S,7S,13R)-13-benzyl-7-isobutyl-N-(3-methoxyphenethyl)-6,9,10,10-tetramethyl-1,5,8,11-tetraoxo-1,2,3,4,5,6,7,8,9,10,11,12,13,14-tetradecahydro-[1]oxa[4,7,10,14]tetraazacycloheptadecino[17,16-c]quinoline-3-carboxamide], the EC50 was 772 nM. In addition, where the note is “U2OS”, the maximal response (Emax) was 137%.

In the case of `CC(C)C[C@H]1C(=O)N2CCCC[C@@H]2C(=O)N[C@H](Cc2ccccc2)COc2ccc3ncccc3c2C(=O)N[C@H](C(=O)NCCc2cc(C3CC3)on2)CC(=O)N1C` [Example 504, (9S,13S,19aR,22R)-22-benzyl-N-(2-(5-cyclopropylisoxazol-3-yl)ethyl)-13-isobutyl-12-methyl-7,11,14,20-tetraoxo-7,8,9,10,11,12,13,14,17,18,19,19a,20,21,22,23-hexadecahydro-16H-pyrido[2′,1′:6,7][1]oxa[4,7,10,14]tetraazacycloheptadecino[16,17-f]quinoline-9-carboxamide], the EC50 came to 149 nM. For the same compound, the Emax (U2OS) was 298%.

On to `CC(C)C[C@H]1C(=O)N2CCCC[C@@H]2C(=O)N[C@H](Cc2ccccc2)COc2ccc3ncccc3c2C(=O)N[C@H](C(=O)NCCc2nc(C3CC3)no2)CC(=O)N1C` [Example 505, (9S,13S,19aR,22R)-22-benzyl-N-(2-(3-cyclopropyl-1,2,4-oxadiazol-5-yl)ethyl)-13-isobutyl-12-methyl-7,11,14,20-tetraoxo-7,8,9,10,11,12,13,14,17,18,19,19a,20,21,22,23-hexadecahydro-16H-pyrido[2′,1′:6,7][1]oxa[4,7,10,14]tetraazacycloheptadecino[16,17-f]quinoline-9-carboxamide], for which the EC50 was determined as 229 nM. Further, the Emax (U2OS) turned out to be 330%.

For `CCN1C(=O)C[C@@H](C(=O)NCCc2cc(C)no2)NC(=O)c2c(cnc3ccccc23)OC[C@@H](Cc2ccccc2)NC(=O)[C@H]2CCCCN2C(=O)[C@@H]1CC(C)C` [Example 506, (9S,13S,19aR,22R)-22-benzyl-12-ethyl-13-isobutyl-N-(2-(3-methylisoxazol-5-yl)ethyl)-7,11,14,20-tetraoxo-7,8,9,10,11,12,13,14,17,18,19,19a,20,21,22,23-hexadecahydro-16H-pyrido[2′,1′:6,7][1]oxa[4,7,10,14]tetraazacycloheptadecino[17,16-c]quinoline-9-carboxamide], the EC50 was 318 nM. Moreover, the Emax (U2OS) was determined as 211%.

For `COc1cccc(CCNC(=O)[C@@H]2CC(=O)N(C)[C@@H](CC(C)C)C(=O)N(C)CC(=O)N[C@H](Cc3ccccc3)COc3ccc4ncc(F)cc4c3C(=O)N2)c1` [Example 507, (3S,7S,13R)-13-benzyl-20-fluoro-7-isobutyl-N-(3-methoxyphenethyl)-6,9-dimethyl-1,5,8,11-tetraoxo-1,2,3,4,5,6,7,8,9,10,11,12,13,14-tetradecahydro-[1]oxa[4,7,10,14]tetraazacycloheptadecino[16,17-f]quinoline-3-carboxamide], the EC50 was determined as 469 nM. For the same compound, the Emax (U2OS) came out at 337%.

As to `Cc1cc(CCNC(=O)[C@@H]2CC(=O)N(C)[C@@H](CC(C)C)C(=O)N(C)[C@H](C3CC3)C(=O)N[C@H](Cc3ccccc3)COc3ccc4ccccc4c3C(=O)N2)on1` [Example 508, (3S,7S,10R,13R)-13-benzyl-10-cyclopropyl-7-isobutyl-6,9-dimethyl-N-(2-(3-methylisoxazol-5-yl)ethyl)-1,5,8,11-tetraoxo-1,2,3,4,5,6,7,8,9,10,11,12,13,14-tetradecahydronaphtho[1,2-p][1]oxa[4,7,10,14]tetraazacycloheptadecine-3-carboxamide], the EC50 turned out to be 382 nM. The Emax (U2OS) worked out at 378%.

Consider `COc1cccc(CCNC(=O)[C@@H]2CC(=O)N(C)[C@@H](CC(C)C)C(=O)N3CCN(c4ccccc4)C[C@@H]3C(=O)N[C@H](Cc3ccccc3)COc3cnc4ccccc4c3C(=O)N2)c1` [Example 509, (9S,13S,19aR,22R)-22-benzyl-13-isobutyl-N-(3-methoxyphenethyl)-12-methyl-7,11,14,20-tetraoxo-18-phenyl-7,8,9,10,11,12,13,14,17,18,19,19a,20,21,22,23-hexadecahydro-16H-pyrazino[2′,11:6,7][1]oxa[4,7,10,14]tetraazacycloheptadecino[17,16-c]quinoline-9-carboxamide], for which the 50% effective concentration (EC50) was found to be 75 nM. In addition, the Emax (U2OS) was determined as 327%.

With `Cc1cc(CCNC(=O)[C@@H]2CC(=O)N(C)[C@@H](CC(C)C)C(=O)N3CCN(c4ccccc4)C[C@@H]3C(=O)N[C@H](Cc3ccccc3)COc3cnc4ccccc4c3C(=O)N2)on1` [Example 510, (9S,13S,19aR,22R)-22-benzyl-13-isobutyl-12-methyl-N-(2-(3-methylisoxazol-5-yl)ethyl)-7,11,14,20-tetraoxo-18-phenyl-7,8,9,10,11,12,13,14,17,18,19,19a,20,21,22,23-hexadecahydro-16H-pyrazino[2′,11:6,7][1]oxa[4,7,10,14]tetraazacycloheptadecino[17,16-c]quinoline-9-carboxamide], the EC50 was 108 nM. For the same compound, the Emax (U2OS) was found to be 256%.

Regarding `COc1nccc2c1C(=O)N[C@H](C(=O)NCCc1nc(C3CC3)no1)CC(=O)N(C)[C@@H](CC(C)C)C(=O)N1CCCC[C@@H]1C(=O)N[C@H](Cc1ccccc1)CO2` [Example 511, (7S,11S,17aR,20R)-20-benzyl-N-(2-(3-cyclopropyl-1,2,4-oxadiazol-5-yl)ethyl)-11-isobutyl-4-methoxy-10-methyl-5,9,12,18-tetraoxo-5,6,7,8,9,10,11,12,15,16,17,17a,18,19,20,21-hexadecahydro-14H-dipyrido[2,1-f:3′,4′-p][1]oxa[4,7,10,14]tetraazacycloheptadecine-7-carboxamide], the EC50 stood at 624 nM. Under “U2OS”, the Emax was found to be 314%.

`COc1nccc2c1C(=O)N[C@H](C(=O)NCCc1cc(C3CC3)on1)CC(=O)N(C)[C@@H](CC(C)C)C(=O)N1CCCC[C@@H]1C(=O)N[C@H](Cc1ccccc1)CO2` [Example 512, (7S,11S,17aR,20R)-20-benzyl-N-(2-(5-cyclopropylisoxazol-3-yl)ethyl)-11-isobutyl-4-methoxy-10-methyl-5,9,12,18-tetraoxo-5,6,7,8,9,10,11,12,15,16,17,17a,18,19,20,21-hexadecahydro-14H-dipyrido[2,1-f:3′,4′-p][1]oxa[4,7,10,14]tetraazacycloheptadecine-7-carboxamide]: the EC50 was found to be 300 nM. Under “U2OS”, the Emax came to 316%.

Turning to `COc1cccc(CCNC(=O)[C@@H]2CC(=O)N(C)[C@@H](CC(C)C)C(=O)N(C)CC(=O)N[C@H](Cc3ccccc3)COc3nccc(OC)c3C(=O)N2)c1` [Example 513, (3R,9S,13S)-3-benzyl-9-isobutyl-16-methoxy-N-(3-methoxyphenethyl)-7,10-dimethyl-5,8,11,15-tetraoxo-2,3,4,5,6,7,8,9,10,11,12,13,14,15-tetradecahydropyrido[3,2-p][1]oxa[4,7,10,14]tetraazacycloheptadecine-13-carboxamide], the EC50 turned out to be 815 nM. Besides, the Emax (U2OS) amounted to 169%.

For `CC(C)C[C@H]1C(=O)N2CCCC[C@@H]2C(=O)N[C@H](Cc2ccccc2)COc2ccc3ncccc3c2C(=O)N[C@H](C(=O)NCCc2cc(C3CC3)no2)CC(=O)N1C` [Example 514, (9S,13S,19aR,22R)-22-benzyl-N-(2-(3-cyclopropylisoxazol-5-yl)ethyl)-13-isobutyl-12-methyl-7,11,14,20-tetraoxo-7,8,9,10,11,12,13,14,17,18,19,19a,20,21,22,23-hexadecahydro-16H-pyrido[2′,11:6,7][1]oxa[4,7,10,14]tetraazacycloheptadecino[16,17-f]quinoline-9-carboxamide], the EC50 was found to be 170 nM. In addition, where the note is “U2OS”, the Emax stood at 304%.

Turning to `COc1cc2c(cn1)OC[C@@H](Cc1ccccc1)NC(=O)[C@H]1CCCCN1C(=O)[C@H](CC(C)C)N(C)C(=O)C[C@@H](C(=O)NCCc1cc(C3CC3)no1)NC2=O` [Example 517, (7S,11S,17aR,20R)-20-benzyl-N-(2-(3-cyclopropylisoxazol-5-yl)ethyl)-11-isobutyl-3-methoxy-10-methyl-5,9,12,18-tetraoxo-5,6,7,8,9,10,11,12,15,16,17,17a,18,19,20,21-hexadecahydro-14H-dipyrido[2,1-f:2′,3′-p][1]oxa[4,7,10,14]tetraazacycloheptadecine-7-carboxamide], the EC50 is 986 nM. Besides, for the setting “U2OS”, the Emax is 222%.

For `COc1cc2c(cn1)OC[C@@H](Cc1ccccc1)NC(=O)[C@H]1CCCCN1C(=O)[C@H](CC(C)C)N(C)C(=O)C[C@@H](C(=O)NCCc1cc(C3CC3)on1)NC2=O` [Example 518, (7S,11S,17aR,20R)-20-benzyl-N-(2-(5-cyclopropylisoxazol-3-yl)ethyl)-11-isobutyl-3-methoxy-10-methyl-5,9,12,18-tetraoxo-5,6,7,8,9,10,11,12,15,16,17,17a,18,19,20,21-hexadecahydro-14H-dipyrido[2,1-f:2′,3′-p][1]oxa[4,7,10,14]tetraazacycloheptadecine-7-carboxamide], the concentration for a half-maximal effect (EC50) stood at 655 nM and the Emax was 189%.

On to `CC(C)C[C@H]1C(=O)N(C)C2(CC2)C(=O)N[C@H](Cc2ccccc2)COc2cnc3ccc(F)cc3c2C(=O)N[C@H](C(=O)NCCc2cc(C3CC3)no2)CC(=O)N1C` [Example 519, (3′S,7′S,13′R)-13′-benzyl-N-(2-(3-cyclopropylisoxazol-5-yl)ethyl)-20′-fluoro-7′-isobutyl-6′,9′-dimethyl-1′,5′,8′,11′-tetraoxo-2′,3′,4′,5′,6′,7′,8′,9′,11′,12′,13′,14′-dodecahydro-1′H-spiro[cyclopropane-1,10′-[1]oxa[4,7,10,14]tetraazacycloheptadecino[17,16-c]quinoline]-3′-carboxamide], for which the EC50 worked out at 184 nM. Also, under “U2OS”, the maximal response (Emax) stood at 332%.

In general, EC50 refers to the concentration at which the effect is half-maximal. Broadly, the Emax is the greatest response seen or fitted, relative to the assay's reference.
